Patent publication US11596716B2, “Compounds and matrices for use in bone growth and repair” (Human BioMolecular Research Institute, priority 2013, dated 2023)

Legend:
Wnt transcription = test: WNT transcriptional reporter assay (Super(8×)TOPflash luciferase, HEK293T cells); format: cell-based; details: Wnt3A-expressing vector, 20 hrs, relative to cells treated with DMSO alone, read-out: Wnt transcription potency
Source text: Commercially available Super(8×)TOPflash vector driven by a (7×) TCF-firefly luciferase response element was transiently transfected into HEK293T cells, together with a TK-driven Renilla luciferase plasmid as an internal control to normalize the luminescence signal and a Wnt3A-expressing vector as the source of pathway activation. HEK293T cells were transfected with plasmids in DMEM plus 10% fetal bovine serum (FBS) for 8 hr, replated to 96-well plates in DMEM plus 10% FBS followed by treatment with compounds (1.6 nM to 5 M) (DMSO final concentration is 0.5%) for 20 hrs. Firefly and Renilla luciferase activities were measured and normalized by the Renilla luciferase values.

C2C12 cells [1] = test: Alkaline Phosphatase (ALP) functional activity assay in C2C12 cells; format: cell-based, Mouse; details: for activation at 0.5 µM: Mus musculus, C2C12, 144 h, compounds of Formula VI, normalized to DMSO treatment
Experimental: Alkaline Phosphatase (ALP) Functional Activity Assay: C2C12 cells were plated into 12-well plates with 7,000 cells/well in 1 mL growth media. […] 1, 2, 3, or 4 in 0.1% DMSO was added (500 nM). Half the media was exchanged with fresh media containing compound every 48 hrs. After 6 days, media was removed, ALP Lysis Buffer (10 mM Tris-HCl pH 8.0, 1 mM MgCl2, and 1% Triton X100) added, and cell lysate obtained (10 min incubation at RT) by centrifugation (5 min at 3500× g at 4° C.). Para-nitrophenol phosphate (pNPP) (2 mg/mL) was incubated with 50 μl cell lysate (10 mins, 37° C.). After addition of […] 0.02 N NaOH, absorbance OD405 was measured. Protein concentration was determined by Bradford protein assay. Results of ALP activity were plotted as nM pNP hydrolyzed/mg total protein. After normalizing control samples (i.e., DMSO-treated samples) to one-fold, the fold-changes were plotted to indicate the relative ALP activity. […] This protocol was applied to hMSC and E15 cells as well.

C2C12 cells [2] = test: qPCR detection of osteogenic markers in C2C12 cells; format: cell-based, Mouse; details: 500 nM, 6 days
C2C12 cells [3] = test: Alizarin Red S staining (calcium deposition) in C2C12 cells; format: cell-based, Mouse; details: 500 nM, 25 days of treatment
Experimental: Alizarin Red S Staining: C2C12 cells were cultured as described for the ALP functional activity assay (above, except compound was added every 48 hr for 25 days), but using 48-well plate format. On day 25, medium was removed and the cells were washed with PBS (calcium and magnesium free). Cells were fixed with 70% ethanol at room temperature for 30 mins, rinsed with water 3×. Following removal of water, 200 μl of Alizarin Red S (2%, pH 4.1) was added to each well and incubated for at least 20 mins. The dye was removed and the cells were washed with excess H2O four times with gentle mixing. The cells were covered with water to prevent evaporation and analyzed by plate reader or microscope. This protocol was applied to hMSC and E15 cells.

C2C12 cells [4] = test: Cell proliferation/viability assay (Resazurin / Alamar blue) in C2C12 cells; format: cell-based, Mouse
Experimental: Cell proliferation/viability assay: Cells were seeded at a density of 500 cells/well on 96-well plates. After 24 hr, compound (i.e., 5 nM, 50 nM, 500 nM or 5000 nM) was added to the cells in the presence or absence of calcium phosphate matrix (5 mg/mL). […] At the specified time, 1 μg of Resazurin was added to each well of the 96-well plate and the fluorescence signal at 590 nm (excitation at 530 nm) was immediately measured. Readings were designated as time zero values (value0h). Cells were incubated for 1 hr before a second fluorescence measurement at 590 nm was made (value1h). The difference in 1 hr and 0 h (value1h−value0h) readings were used to plot the fold-change in cell proliferation/viability after normalizing to control conditions (i.e., DMSO vehicle treatment). Compounds of Formula II or IV that activate Wnt signaling and compounds of Formula VI that activate TLR signaling pathways were analyzed. This protocol was applied to hMSC and E15 cells as well. Cell proliferation was not robust in keeping with a narrow number of cells highly committed to the bone cell lineage.

C2C12 cells [5] = test: qPCR of apoptosis biomarkers (Bax and Fos) in C2C12 cells; format: cell-based, Mouse; details: 500 nM or 5 μM every 48 hrs, up to 25 days
hMSCs [6] = test: Alkaline Phosphatase functional activity assay in hMSCs; format: cell-based, human; parameters: key to Alkaline Phosphatase activity, −matrix, 8 days / Alkaline Phosphatase activity, +matrix, 8 days / Alkaline Phosphatase activity, −matrix, 25 days / Alkaline Phosphatase activity, +matrix, 25 days: fold-change vs DMSO-treated control (control = 1); details: 500 nM
hMSCs [7] = test: Alamar blue cell viability assay in hMSCs; format: cell-based, human; details: 500 nM, 25-day-old hMSCs
Experimental: Cell proliferation/viability assay: Cells were seeded at a density of 500 cells/well on 96-well plates. After 24 hr, compound (i.e., 5 nM, 50 nM, 500 nM or 5000 nM) was added to the cells in the presence or absence of calcium phosphate matrix (5 mg/mL). One-half of the media was replaced with fresh media containing compound every 48 hours for 8 days. At the specified time, 1 μg of Resazurin was added to each well of the 96-well plate and the fluorescence signal at 590 nm (excitation at 530 nm) was immediately measured. Readings were designated as time zero values (value0h). Cells were incubated for 1 hr before a second fluorescence measurement at 590 nm was made (value1h). The difference in 1 hr and 0 h (value1h−value0h) readings were used to plot the fold-change in cell proliferation/viability after normalizing to control conditions (i.e., DMSO vehicle treatment). Compounds of Formula II or IV that activate Wnt signaling and compounds of Formula VI that activate TLR signaling pathways were analyzed. This protocol was applied to hMSC and E15 cells as well. Cell proliferation was not robust in keeping with a narrow number of cells highly committed to the bone cell lineage.
The assay for cell proliferation followed the same procedure with hMSCs as described for C2C12 cells (Example 7).

hMSCs [8] = test: qPCR of apoptosis biomarkers (Bax and Fos) in hMSCs; format: cell-based, human
hMSCs [9] = test: Transwell migration of hMSCs to calcium phosphate matrix; format: cell-based, human; details: 500 nM
Experimental: Human MSC migration to the site of bone injury is an important part of the repair process. […] After 8 hrs, compounds were washed off the cells and cells placed in a traditional transwell migration system. The top reservoir contained serum-free DMEM and the bottom reservoir contained DMEM plus 2% FBS. After incubation overnight, non-migrated cells were removed, migrated cells (stuck in the bottom chamber) were then fixed with 70% EtOH (40 mins) and total migrated cells were counted under a microscope after staining with 1 mg/mL of crystal violet (1 hr). hMSCs treated with compound 2 (500 nM, 8 hr) induced a 10-fold greater cell migration to the matrix than DMSO-pre-treated cells under the conditions described above. In a separate experiment, matrix that was pre-coated with compound 4 (as prepared in Example 5) was placed in the bottom chamber and migration of hMSCs from the top chamber was evaluated. Compound 4-coated matrix induced a 2-fold increase in cell migration to the matrix compared to DMSO-treated cells.
hMSC migration was analyzed by using calcium phosphate matrix that had been pre-adsorbed with compounds 1 or 2 (500 nM, as described in Example 5) and studied in the transwell system (2% serum, described above). Compound 1 and 2 induced 3.5-fold and 1.9-fold more cell migration than non-coated ceramic. While non-limiting, these examples show the utility of the approach for increased cell migration and localization to the calcium phosphate ceramic matrix when compounds of the disclosure are present. Use of compounds of Formula II, IV, and VI to pre-coat the ceramic and also pretreat the cells is also of utility.

hMSCs [10] = test: TLR4/TLR3 mRNA expression ratio by qPCR in hMSCs; format: cell-based, human; details: 500 nM, 8 days
Source text: TLRs are modulators of hMSC differentiation. TLRs (TLR1-10) mRNA could be detected by qPCR in hMSCs. TLR4 is a biomarker for osteogenesis and TLR3 is a biomarker for adipogenesis. […]

hMSCs [11] = test: qPCR of target gene mRNA expression in hMSCs; format: cell-based, human; details: hMSCs, comparison with compound 3 and calcium phosphate ceramic
Experimental: qPCR detection of osteogenic markers: Cells were cultured with compound in the presence or absence of matrix as described above, but using 96-well plate format. Total RNA was extracted from cells (as above) using Trizol. cDNA was made using 750 ng of total RNA with Bio-Rad iscript kit and was diluted 20-fold before being used for qPCR. qPCR was conducted under the following conditions: 95° C., 2 min; 95° C., 10 s and 60° C., 45 s for 40 cycles; 60° C. for 71 cycles for melt curve. qPCR results were analyzed by the ΔΔCt method. 18s rRNA was used as an internal standard. This protocol was applied to hMSC and E15 cells.
Runx2 and BMP-2 are osteogenic markers; Axin2, Wnt3a, and Sox 9 are Wnt-inducible gene markers.
The assay for mRNA expression followed the same procedure with hMSCs as described for C2C12 cells (Example 7).

Solubility in water = format: physicochemical
[12] = matrix 5 mg/mL, mean +/− SD (n = 3)

Cc1nc2c(-c3ccccc3)cnn2c(NCCN(C)C)c1C [Compound 2, 3-phenyl-5,6-dimethyl-7-[N-(2-N,N-dimethylaminoethyl)amino]-pyrazolo[1,5-a]pyrimidine]
EC50 (Wnt transcription): > 40 nM | ALP activity, combination of compound and matrix compared to compound alone or matrix alone (C2C12 cells [1]; 500 nM, 6 day incubation, tricalcium phosphate ceramic matrix 5 mg/mL (FIG. 2)): synergistic increase in ALP activity | ALP activity fold-changes +/− SD, +matrix (C2C12 cells [1]; 500 nM, 6 days of culture, calcium phosphate ceramic 5 mg/mL): 23.6 ± 2.5 fold | ID3 mRNA expression, presence of matrix (C2C12 cells [2]): 1.7 fold | calcium deposition, absence of matrix (C2C12 cells [3]): 2.0 fold | calcium deposition, presence of matrix (C2C12 cells [3]): 2.3 fold | cell viability (Alamar blue) (C2C12 cells [4]; 500 nM every 48 hrs for 25 days): did not show a decrease in cell viability | gene expression of apoptosis biomarkers (Bax and Fos) (C2C12 cells [5]): unable to detect gene expression of typical apoptosis biomarkers | ALP functional activity, compound and matrix versus compound alone or matrix alone (hMSCs [6]; 8 and 25 day incubations, matrix 5 mg/mL (FIG. 3)): exceeded the effect of compound alone or matrix alone | Alkaline Phosphatase activity, +matrix, 8 days (hMSCs [6]; [12]): 2.6 ± 0.3 | Alkaline Phosphatase activity, +matrix, 25 days (hMSCs [6]; [12]): 4.5 ± 0.4 | Alkaline Phosphatase activity, −matrix, 25 days (hMSCs [6]; mean +/− SD (n = 3)): 2.6 ± 0.3 | Alkaline Phosphatase activity, −matrix, 8 days (hMSCs [6]; mean +/− SD (n = 3), fold): 1.5 ± 0.1 | cell viability (Alamar blue) (hMSCs [7]): no decrease in cell viability | gene expression of apoptosis biomarkers (Bax and Fos) (hMSCs [8]; 500 nM to 5 μM, up to 25 days): unable to detect gene expression of typical apoptosis biomarkers | cytotoxicity as determined by quantification of apoptosis (hMSCs [8]; hMSCs): no cytotoxicity | cell migration to the matrix, hMSCs pre-treated with compound, versus DMSO-pre-treated cells (hMSCs [9]; 8 hr pre-treatment, transwell overnight): 10 fold | cell migration to matrix pre-adsorbed with compound versus non-coated ceramic (hMSCs [9]; transwell, 2% serum): 1.9 fold | TLR4/TLR3 ratio, compound alone (hMSCs [10]): modest increase

O=C(C=Cc1ccc(O)cc1)C=C(O)C=Cc1ccc(O)cc1 [Compound 54, 1,7-Bis(4-hydroxyphenyl)-5-hydroxy-hepta-1,4,6-trien-3-one]
activation at 0.5 µM (C2C12 cells [1]; absence of matrix): 5 to 50% | activation at 0.5 µM (C2C12 cells [1]; presence of calcium phosphate matrix): 50 to 100% | increase in cell proliferation (Alamar Blue Assay) (C2C12 cells [4]; 50 nM, 3 days): 2 fold | robust mRNA up-regulation of VDR or ALP (hMSCs [11]): not observed | solubility in water (Solubility in water): only sparingly soluble
